Data published in patent US20220288207A1, “PHOTO INDUCED CONTROL OF PROTEIN DESTRUCTION” (Beth Israel Deaconess Medical Center, Inc., priority 2019, published 2022).
“Also recorded” adds a separate entry of the source.

Legend:
BRD2 and BRD3 = assay: In vivo ubiquitination assay of BRD2 and BRD3 by CRBN in HEK293T cells (Ni-NTA pull down); assay type: cell-based, Human
Procedure: Denatured in vivo ubiquitination assays were performed as described in H. Inuzuka et al., Cell 150 (2012): 179, hereby incorporated by reference in its entirety and specifically in relation to ubiquitination assays. Briefly, HEK293T cells were transfected with Flag-CRBN, His-ubiquitin and HA-IKZF1 or GFP-BRD2 or GFP-BRD3. 24 hours after transfection, pomalidomide, opto-pomalidomide, dBET1 or opto-dBET1 were added to the cell culture together with 10 μM MG132 for 12 hours and cells were harvested in denatured buffer A (6 M guanidine-HCl, pH 8.0, 0.1 M Na2HPO4/NaH2PO4, 10 mM imidazole). After sonication, the ubiquitinated proteins were purified by incubation with Ni-NTA matrices for 3 hours at room temperature. The pull-down products were washed sequentially twice in buffer A, twice in buffer ANTI mixture (buffer A: buffer TI=1:3) and once in buffer TI (25 mM Tris-HCl, pH 6.8, 20 mM imidazole). The poly-ubiquitinated proteins were separated by SDS-PAGE for immunoblot analysis.

BRD3/4 = BRD3/4 degradation, immunoblot of 293FT cells; assay type: cell-based, Human
Procedure: (§1) Human embryonic kidney 293T (HEK293T) cells and HEK293FT were maintained in Dulbecco's Modified Eagle's Medium (DMEM) containing 10% fetal bovine serum (FBS), 100 Units of penicillin and […] streptomycin. MM.1S, MT2, C4-2, NCI-H2228 and NCI-H3122 cells were cultured in RPMI1640 containing 10% fetal bovine serum (FBS), 100 Units of penicillin and 100 μg/ml streptomycin. 293FT^CRBN+/+, 293FT^CRBN+/+ , MM.1S^CRBN+/+ and MM.1S^CRBN−/− cells were provided Dr. William G. Kaelin (Dana-Farber Cancer Institute). For UVA irradiation, cells were pretreated with opto-PROTACs for 2-4 hours, and then subjected to UVA irradiation for indicated durations.
Cells were lysed in EBC lysis buffer (50 mM Tris pH 7.5, 120 mM NaCl, 0.5% NP-40), supplemented with protease inhibitors (cOmplete Mini, Roche) and phosphatase inhibitors (phosphatase inhibitor cocktail set I and II, Calbiochem). The protein concentrations of the lysates were measured using the Bio-Rad protein assay reagent on a Beckman Coulter DU-800 spectrophotometer. The lysates were then resolved by sodium dodecylsulfate-polyacrylamide gel ectrophoresis (SDS-PAGE) and immunoblotted with indicated antibodies. For immunoprecipitation, 1 mg lysates were incubated with the appropriate sepharose beads for 4 h at 4° C. Immuno-complexes were washed four times with NETN lysis buffer (20 mM Tris, pH 8.0, 100 mM NaCl, 1 mM EDTA and 0.5% NP-40) before being resolved by SDS-PAGE and immunoblotted with indicated antibodies.

HEK293FT cells = assay: CCK-8 cell viability assay, HEK293FT cells; assay type: cell-based, Human
Procedure: as §1
(§2) Cell in 96-well plates were incubated with 10 ul/well of CCK-8 solution and incubated for 2 hours, followed by the measurement of optical density using a microplate reader with a 450 nm filter (O.D. 450).

C4-2 cells = assay: CCK-8 cell viability assay, C4-2 cells; assay type: cell-based
Procedure: as §1, §2

[1] = Uncaging (photolysis) by UVA irradiation in vitro, UV-VIS absorption / UPLC-MS analysis; assay type: physicochemical; settings: 1 mM, UVA 365 nm, time course
Procedure: HPLC spectra were acquired using an Agilent 1200 Series system with DAD detector for all the intermediates and Opto-PROTACs below. Chromatography was performed on a 2.1×150 mm Zorbax 300SB-C18 5 μm column with water containing 0.1% formic acid as solvent A and acetonitrile containing 0.1% formic acid as solvent B at a flow rate of 0.4 ml/min. The gradient program was as follows: 1% B (0-1 min), 1-99% B (1-4 min), and 99% B (4-8 min). High-resolution mass spectra (FIRMS) data were acquired in positive ion mode using an Agilent G1969A API-TOF with an electrospray ionization (ESI) source. Nuclear Magnetic Resonance (NMR) spectra were acquired on a Bruker DRX-600 spectrometer with 600 MHz for proton (^1H NMR) and 151 MHz for carbon (^13C NMR); chemical shifts are reported in (δ). Preparative HPLC was performed on Agilent Prep 1200 series with UV detector set to 254 nm. Samples were injected onto a Phenomenex Luna 250×30 mm, 5 μm, C18 column at room temperature. The flow rate was 40 ml/min. A linear gradient was used with 10% of acetonitrile (A) in H2O (with 0.1% TFA) (B) to 100% of acetonitrile (A). HPLC was used to establish the purity of target compounds. All final compounds had >95% purity using the HPLC methods described above.
UV-Vis spectrometry was performed on a NanoDrop-2000 UV-Visible Spectrophotometer. Pomalidomide, opto-pomalidomide, dBET1, opto-dBET1, dALK and opto-dALK were dissolved in DMSO and diluted to indicated concentration, followed by UVA irradiation for indicated duration of time. Then the samples were subjected to UV-Vis spectrometry analysis. Pomalidomide and opto-pomalidomide mixture solutions were made with the indicated ratio. Absorption values at 364 nm were measured to draw standard curve. dBET1 and opto-dBET1 mixture solution were made with the indicated ratios. Absorption values at 340 nm were measured to draw standard curve. dALK and opto-dALK mixture solution were made with indicated ratio. Absorption values at 370 nm were measured to draw standard curve.

NCI-H2228 cells = assay: CCK-8 cell viability assay, NCI-H2228 cells; assay type: cell-based
Procedure: as §1, §2

NCI-H3122 cells = assay: CCK-8 cell viability assay, NCI-H3122 cells; assay type: cell-based
Procedure: as §1, §2

[2] = 293FT-CRBN+/+ vs. 293FT-CRBN−/− cells, 12 hours, without UVA irradiation
[3] = HEK293FT (293FT-CRBN+/+ and CRBN−/−) cells, without UVA irradiation
[4] = 72 hours, without UVA irradiation
[5] = UVA irradiation (365 nm) 15 minutes

SMILES	ubiquitination of BRD2 and BRD3 by CRBN (BRD2 and BRD3; without UVA irradiation)	degradation of BRD3/4 (BRD3/4; [2])	cell proliferation (CCK-8) (HEK293FT cells; [3])	cell proliferation (CCK-8) (C4-2 cells; without UVA irradiation)	uncaging (photolysis) by UVA irradiation in vitro [1]	cell proliferation (CCK-8) (NCI-H2228 cells; [4])	cell proliferation (CCK-8) (NCI-H2228 cells; [5])	cell proliferation (CCK-8) (NCI-H3122 cells; [4])	cell proliferation (CCK-8) (NCI-H3122 cells; [5])	ubiquitination of BRD2 and BRD3 by CRBN (BRD2 and BRD3; UVA irradiation (365 nm) 15 min)	degradation of BRD3/4 (BRD3/4; HEK293FT cells, UVA irradiation (365 nm) 5 or 15 minutes)	cell proliferation (CCK-8) (HEK293FT cells; HEK293FT cells, UVA irradiation (365 nm) 15 minutes)	cell proliferation (CCK-8) (C4-2 cells; [5])
Cc1sc2c(c1C)C(c1ccc(Cl)cc1)=N[C@@H](CC(=O)NCCCCNC(=O)COc1cccc3c1C(=O)N(C1CCC(=O)NC1=O)C3=O)c1nnc(C)n1-2 (stereo partly drawn) [dBET1, reference compound]	function as a molecular linker between a protein targeting moiety that recruits bromodomain family members (BRD2/3) (JQ1 derived) and CRBN-mediated ubiquitination	degraded BRD 3/4 in a CRBN-dependent manner	inhibited cell proliferation in a dose-dependent manner; also recorded: inhibits cell proliferation in 293FT-CRBN^+/+ but not 293FT-CRBN^−/− cells	inhibited cell proliferation in a dose-dependent manner	–	–	–	–	–	–	–	–	–
COc1cc(COC(=O)N2C(=O)CCC(N3C(=O)c4cccc(NCCNC(=O)CN5CCC(c6cc(OC(C)C)c(Nc7ncc(Cl)c(Nc8ccccc8S(=O)(=O)C(C)C)n7)cc6C)CC5)c4C3=O)C2=O)c([N+](=O)[O-])cc1OC (stereo not drawn) [opto-dALK]	–	–	–	–	efficiently uncaged by UVA irradiation in vitro	inefficient in inhibiting the proliferation of H2228 (C) or NCI-3122 (D)	required prior uncaging by UVA irradiation; also recorded: inhibits H2228 (E) or NCI-3122 (F) cell proliferation in a dose-dependent manner	inefficient in inhibiting the proliferation of H2228 (C) or NCI-3122 (D)	required prior uncaging by UVA irradiation; also recorded: inhibits H2228 (E) or NCI-3122 (F) cell proliferation in a dose-dependent manner	–	–	–	–
COc1cc(COC(=O)N2C(=O)CCC(N3C(=O)c4cccc(OCC(=O)NCCCCNC(=O)C[C@@H]5N=C(c6ccc(Cl)cc6)c6c(sc(C)c6C)-n6c(C)nnc65)c4C3=O)C2=O)c([N+](=O)[O-])cc1OC (stereo partly drawn) [opto-dBET1]	incapable of guiding the ubiquitination of BRD2 and BRD3	largely inert and incapable of degrading BRD3/4	relatively less toxic; also recorded: did not inhibit cell proliferation in 293FT-CRBN^+/+ and 293FT-CRBN^−/− cells	relatively less toxic	efficiently uncaged by UVA irradiation in vitro	–	–	–	–	regained its ability to promote ubiquitination of BRDs in cells	leading to the degradation of BRD3/4	could be activated by UVA irradiation to suppress cell proliferation; also recorded: inhibits HEK293FT (J) and C4-2 (K) cell proliferation in a dose-dependent manner	could be activated by UVA irradiation to suppress cell proliferation; also recorded: inhibits HEK293FT (J) and C4-2 (K) cell proliferation in a dose-dependent manner
